Active and inactive are the calls of the source. How the calls were made is not given here.
Test system: CCRIS mutagenicity, Ames/micronucleus/aberration tests
Test: CCRIS mutagenicity studies
[1] = Test System: AMES SALMONELLA TYPHIMURIUM, Strain/Indicator: TA98, Metabolic Activation: NONE, Method: STANDARD PLATE
[2] = Test System: AMES SALMONELLA TYPHIMURIUM, Strain/Indicator: TA100, Metabolic Activation: NONE, Method: STANDARD PLATE

CC(=O)Nc1ccc(-c2ccc(NC(C)=O)cc2)cc1 was tested, and the mutagenic call (Test System: AMES SALMONELLA TYPHIMURIUM, Strain/Indicator: TA1538, Metabolic Activation: GUINEA PIG, LIVER, HEPATOCYTES, Method: PREINCUBATION) was “active; positive”, the mutagenic call (Test System: AMES SALMONELLA TYPHIMURIUM, Strain/Indicator: TA1538, Metabolic Activation: GUINEA PIG, LIVER, S-9, ACETYL-COA (0.1 OR 1 MILLIMOLAR), Method: PREINCUBATION) was “active; positive” and the mutagenic call (Test System: AMES SALMONELLA TYPHIMURIUM, Strain/Indicator: TA1538, Metabolic Activation: GUINEA PIG, LIVER, S-9, Method: PREINCUBATION) was “active; positive”. The mutagenic call (Test System: AMES SALMONELLA TYPHIMURIUM, Strain/Indicator: TA1538, Metabolic Activation: HAMSTER, LIVER, HEPATOCYTES, Method: PREINCUBATION) was “active; positive”, the mutagenic call (Test System: AMES SALMONELLA TYPHIMURIUM, Strain/Indicator: TA1538, Metabolic Activation: HAMSTER, LIVER, S-9, ACETYL-COA (0.1 OR 1 MILLIMOLAR), Method: PREINCUBATION) was “active; positive” and the mutagenic call (Test System: AMES SALMONELLA TYPHIMURIUM, Strain/Indicator: TA1538, Metabolic Activation: HAMSTER, LIVER, S-9, Method: PREINCUBATION) was “active; positive”. For the same molecule, the mutagenic call (Test System: AMES SALMONELLA TYPHIMURIUM, Strain/Indicator: TA1538, Metabolic Activation: RAT, LIVER, HEPATOCYTES, Method: PREINCUBATION) was “active; positive”, the mutagenic call (Test System: AMES SALMONELLA TYPHIMURIUM, Strain/Indicator: TA1538, Metabolic Activation: RAT, LIVER, S-9, ACETYL-COA (0.1 OR 1 MILLIMOLAR), Method: PREINCUBATION) was “active; positive” and the mutagenic call (Test System: AMES SALMONELLA TYPHIMURIUM, Strain/Indicator: TA1538, Metabolic Activation: RAT, LIVER, S-9, Method: PREINCUBATION) was “active; positive”. For the same molecule, the mutagenic call (Test System: Ames Salmonella typhimurium, Strain/Indicator: TA102, Metabolic Activation: None, Method: Preincubation) was “inactive; negative” and the mutagenic call (Test System: Ames Salmonella typhimurium, Strain/Indicator: TA102, Metabolic Activation: Rat, liver, S-9, Aroclor 1254, 4%, Method: Preincubation) was “inactive; negative”.

In the case of ClC(CBr)CBr, the mutagenic call (Test System: AMES SALMONELLA TYPHIMURIUM, Strain/Indicator: TA100, Metabolic Activation: RAT, LIVER, MICROSOMES, PHENOBARBITAL, NADPH COFACTORS, Method: STANDARD PLATE) is reported as “active; positive” and the mutagenic call (Test System: AMES SALMONELLA TYPHIMURIUM, Strain/Indicator: TA100, Metabolic Activation: RAT, LIVER, MICROSOMES, PHENOBARBITAL, Method: STANDARD PLATE) is reported as “inactive; negative”.

In the case of CC1=C[C@H](O)[C@H]2C[C@@H]1C2(C)C, the mutagenic call [1] is reported as “inactive; negative”, the mutagenic call (Test System: AMES SALMONELLA TYPHIMURIUM, Strain/Indicator: TA98, Metabolic Activation: RAT, LIVER, S-9, Method: STANDARD PLATE) is reported as “inactive; negative” and the mutagenic call [2] is reported as “inactive; negative”. For the same molecule, the mutagenic call (Test System: AMES SALMONELLA TYPHIMURIUM, Strain/Indicator: TA100, Metabolic Activation: RAT, LIVER, S-9, Method: STANDARD PLATE) was “inactive; negative”, the mutagenic call (Test System: AMES SALMONELLA TYPHIMURIUM, Strain/Indicator: TA1535, Metabolic Activation: NONE, Method: STANDARD PLATE) was “inactive; negative” and the mutagenic call (Test System: AMES SALMONELLA TYPHIMURIUM, Strain/Indicator: TA1535, Metabolic Activation: RAT, LIVER, S-9, Method: STANDARD PLATE) was “inactive; negative”. The mutagenic call (Test System: AMES SALMONELLA TYPHIMURIUM, Strain/Indicator: TA1538, Metabolic Activation: NONE, Method: STANDARD PLATE) was “inactive; negative” and the mutagenic call (Test System: AMES SALMONELLA TYPHIMURIUM, Strain/Indicator: TA1538, Metabolic Activation: RAT, LIVER, S-9, Method: STANDARD PLATE) was “inactive; negative”.

With Cc1c2ccc(CO)cc2nc2c1ccc1ccccc12 the mutagenic call (Test System: AMES SALMONELLA TYPHIMURIUM, Strain/Indicator: TA100, Metabolic Activation: RAT, LIVER, S-9, AROCLOR 1254, Method: STANDARD PLATE) was “active; positive”.

For Nc1ccc2c(c1)oc1ccccc12, the mutagenic call [1] was “active; positive”, the mutagenic call (Test System: AMES SALMONELLA TYPHIMURIUM, Strain/Indicator: TA98, Metabolic Activation: S-9, PHENOBARBITAL AND 5,6-BENZOFLAVONE, Method: STANDARD PLATE) was “active; positive” and the mutagenic call [2] was “inactive; negative”. The mutagenic call (Test System: AMES SALMONELLA TYPHIMURIUM, Strain/Indicator: TA100, Metabolic Activation: S-9, PHENOBARBITAL AND 5,6-BENZOFLAVONE, Method: STANDARD PLATE) was “active; positive”.

For O=C(O)C1=NN(c2ccc(S(=O)(=O)O)cc2)C(=O)C1N=Nc1ccc(S(=O)(=O)O)cc1.[Al] (centres undefined), the mutagenic call (Test System: AMES SALMONELLA TYPHIMURIUM, Strain/Indicator: TA97, Metabolic Activation: HAMSTER, LIVER, S-9, AROCLOR 1254 (10%), Method: PREINCUBATION) was “inactive; negative”, the mutagenic call (Test System: AMES SALMONELLA TYPHIMURIUM, Strain/Indicator: TA97, Metabolic Activation: HAMSTER, LIVER, S-9, AROCLOR 1254 (30%), Method: PREINCUBATION) was “inactive; negative” and the mutagenic call (Test System: AMES SALMONELLA TYPHIMURIUM, Strain/Indicator: TA97, Metabolic Activation: NONE, Method: PREINCUBATION) was “inactive; negative”. For the same molecule, the mutagenic call (Test System: AMES SALMONELLA TYPHIMURIUM, Strain/Indicator: TA97, Metabolic Activation: RAT, LIVER, S-9, AROCLOR 1254 (10%), Method: PREINCUBATION) was “inactive; negative”, the mutagenic call (Test System: AMES SALMONELLA TYPHIMURIUM, Strain/Indicator: TA97, Metabolic Activation: RAT, LIVER, S-9, AROCLOR 1254 (30%), Method: PREINCUBATION) was “inactive; negative” and the mutagenic call (Test System: AMES SALMONELLA TYPHIMURIUM, Strain/Indicator: TA98, Metabolic Activation: HAMSTER, LIVER, S-9, AROCLOR 1254 (10%), Method: PREINCUBATION) was “inactive; negative”. For the same molecule, the mutagenic call (Test System: AMES SALMONELLA TYPHIMURIUM, Strain/Indicator: TA98, Metabolic Activation: HAMSTER, LIVER, S-9, AROCLOR 1254 (30%), Method: PREINCUBATION) was “inactive; negative”, the mutagenic call (Test System: AMES SALMONELLA TYPHIMURIUM, Strain/Indicator: TA98, Metabolic Activation: NONE, Method: PREINCUBATION) was “inactive; negative” and the mutagenic call (Test System: AMES SALMONELLA TYPHIMURIUM, Strain/Indicator: TA98, Metabolic Activation: RAT, LIVER, S-9, AROCLOR 1254 (10%), Method: PREINCUBATION) was “inactive; negative”. The mutagenic call (Test System: AMES SALMONELLA TYPHIMURIUM, Strain/Indicator: TA98, Metabolic Activation: RAT, LIVER, S-9, AROCLOR 1254 (30%), Method: PREINCUBATION) was “inactive; negative”, the mutagenic call (Test System: AMES SALMONELLA TYPHIMURIUM, Strain/Indicator: TA100, Metabolic Activation: HAMSTER, LIVER, S-9, AROCLOR 1254 (10%), Method: PREINCUBATION) was “inactive; negative” and the mutagenic call (Test System: AMES SALMONELLA TYPHIMURIUM, Strain/Indicator: TA100, Metabolic Activation: HAMSTER, LIVER, S-9, AROCLOR 1254 (30%), Method: PREINCUBATION) was “inactive; negative”. For the same molecule, the mutagenic call (Test System: AMES SALMONELLA TYPHIMURIUM, Strain/Indicator: TA100, Metabolic Activation: NONE, Method: PREINCUBATION) was “inactive; negative”, the mutagenic call (Test System: AMES SALMONELLA TYPHIMURIUM, Strain/Indicator: TA100, Metabolic Activation: RAT, LIVER, S-9, AROCLOR 1254 (10%), Method: PREINCUBATION) was “inactive; negative” and the mutagenic call (Test System: AMES SALMONELLA TYPHIMURIUM, Strain/Indicator: TA100, Metabolic Activation: RAT, LIVER, S-9, AROCLOR 1254 (30%), Method: PREINCUBATION) was “inactive; negative”. The mutagenic call (Test System: AMES SALMONELLA TYPHIMURIUM, Strain/Indicator: TA1535, Metabolic Activation: HAMSTER, LIVER, S-9, AROCLOR 1254 (10%), Method: PREINCUBATION) was “inactive; negative”, the mutagenic call (Test System: AMES SALMONELLA TYPHIMURIUM, Strain/Indicator: TA1535, Metabolic Activation: HAMSTER, LIVER, S-9, AROCLOR 1254 (30%), Method: PREINCUBATION) was “inactive; negative” and the mutagenic call (Test System: AMES SALMONELLA TYPHIMURIUM, Strain/Indicator: TA1535, Metabolic Activation: NONE, Method: PREINCUBATION) was “inactive; negative”. The mutagenic call (Test System: AMES SALMONELLA TYPHIMURIUM, Strain/Indicator: TA1535, Metabolic Activation: RAT, LIVER, S-9, AROCLOR 1254 (10%), Method: PREINCUBATION) was “inactive; negative”, the mutagenic call (Test System: AMES SALMONELLA TYPHIMURIUM, Strain/Indicator: TA1535, Metabolic Activation: RAT, LIVER, S-9, AROCLOR 1254 (30%), Method: PREINCUBATION) was “inactive; negative” and the mutagenic call (Test System: AMES SALMONELLA TYPHIMURIUM, Strain/Indicator: TA1537, Metabolic Activation: HAMSTER, LIVER, S-9, AROCLOR 1254 (30%), Method: PREINCUBATION) was “inactive; negative”. For the same molecule, the mutagenic call (Test System: AMES SALMONELLA TYPHIMURIUM, Strain/Indicator: TA1537, Metabolic Activation: NONE, Method: PREINCUBATION) was “inactive; negative” and the mutagenic call (Test System: AMES SALMONELLA TYPHIMURIUM, Strain/Indicator: TA1537, Metabolic Activation: RAT, LIVER, S-9, AROCLOR 1254 (30%), Method: PREINCUBATION) was “inactive; negative”.

Source: PubChem BioAssay AID1259407 (Chemical Carcinogenesis Research Information System (CCRIS), 2018)
